Measurements as given in paper PMC3578785, “Improved BM212 MmpL3 Inhibitor Analogue Shows Efficacy in Acute Murine Model of Tuberculosis Infection” (PLoS ONE, 2013).

Columns and labels:
[1] = test system: M. tuberculosis H37Rv and mmpL3 mutants DR1-DR9; type: cell-based
[2] = test system: M. bovis BCG and mmpL3 mutants M1, M8; type: cell-based

SMILES | MIC for M. tuberculosis mutants with amino acid change V681I [1] [µM] | MIC for M. tuberculosis isolates resistant to compound 8 [1] [µM] | MIC for M. bovis BCG mutants resistant to compound 8 [2] [µM]
Cc1ccc(-c2cc(CN3CCOCC3)c(C)n2-c2ccc(F)cc2)cc1 [Compound 5, 2-Methyl-3-[(morpholin-4-yl)-methyl]-5-[4-(methyl)phenyl]-1-[4-(fluoro)phenyl]-1H-pyrrole] | 5.4 | – | –
CCc1ccc(-c2cc(CN3CCOCC3)c(C)n2-c2ccc(F)cc2)cc1 [Compound 8, 2-Methyl-3-[(morpholin-4-yl)-methyl]-5-[4-(ethyl)phenyl]-1-[4-(fluoro)phenyl]-1H-pyrrole] | – | 0.66 | 0.63
